Data on 18 molecules can be found in patent US7205003B2, “Method and topical formulation for treating skin conditions associated with aging” (Dermatrends, Inc., priority 2001, dated 2007).

Structures are written as SMILES. Like-named read-outs stand apart in the source and are kept apart here.

The conditions of data set [1]: cited from earlier work.
The conditions of data set [2]: cited from earlier work. The source holds these as a separate data set.
Data set [3] in a line: in vitro keratolysis study: protein released from ground adult foot callus, BioRad protein assay. As to the method:
An in vitro keratolysis study was performed to compare the capability of glycolic acid and a base for removing protein from stratum corneum. Adult foot callus was collected, grounded and the portion between 50–80 mesh was used. Glycolic acid and sodium hydroxide solutions (concentration =0.05 M) were prepared in distilled water. Ten mg of ground callus powder was place in a test tube. Four ml of a test chemical was added to the callus and the test tube was placed in a shaker and incubated in a water bath at 37° C. for a predetermined incubation time. The incubation time periods were 10 min., 40 min, 2 hours, 4 hours, 6 hours and 24 hours. Six samples of each base were tested a total of six times each at each of the aforementioned incubation time periods.
At the end of each incubation period, the test tube was removed from the shaker and the test tube was centrifuged. The solution was removed and filtered, and the protein in the solution was then determined using a BioRad® protein assay kit.

Setting [4] is: Example 1, 0.05 M, all time points, versus glycolic acid / water control.
[5] abbreviates: Example 2, 0.05 M, 10 minutes, versus glycolic acid, other bases, water control.

Turning to `CC(N)(CO)CO` [2-amino-2-methyl-1,3-propanediol], the “pH of Aqueous Solution” value in data set [1] (0.1 m) is given as 10.8 (0.1 m).

Consider `CC(C)(N)CO` [2-amino-2-methyl-1-propanol], for which, in data set [1] (0.1 m), the “pH of Aqueous Solution” value was 11.3 (0.1 m).

In the case of `N` [Ammonium hydroxide], the “pH of Aqueous Solution” value was 10.27 in data set [1] (0.001 N) and 11.27 in data set [1] (1 N).

As for `N.N.O=P(O)(O)O` [Ammonium phosphate, dibasic], in data set [1] (concentration not given), the “pH of Aqueous Solution” value is recorded as around 8.

Consider `[O]=[Ca]` [Calcium oxide], for which, in data set [2], the “solubility in water, in words” value is reported as “Soluble in water, Form Ca(OH)2”.

Regarding `OCCNCCO` [Diethanolamine], the “pH of Aqueous Solution” value in data set [1] (0.1 N) is 11.0 (0.1 N).

Regarding `O=C(O)CO` [Glycolic Acid, reference compound], the “protein released, comparison in words” value in data set [3] (setting [4]) is reported as “did not show statistical differences in comparison with water”; in data set [3] (setting [5]), “did not show significant differences in comparison with water”.

`[O]=[Mg]` [Magnesium oxide]: the “pH of Aqueous Solution” value in data set [1] (saturated solution in water) is 10.3 (saturated aqueous solution).

Regarding `[Na+].[OH-]` [NaOH, Sodium hydroxide], in data set [3] (Example 1, 0.05 M), the “amounts of protein released at 6 hours and 24 hours versus 10 minutes, 40 minutes, 2 hours and 4 hours” value is “significantly higher”. For the same molecule, the “protein released, comparison in words” value in data set [3] (setting [4]) and in data set [3] (setting [5]) was “released more protein” each time. The “pH of Aqueous Solution” value in data set [1] (0.05%) is 12; in data set [1] (0.5%), 13; in data set [1] (5%), 14.

As to `O=C([O-])CC(O)(CC(=O)[O-])C(=O)[O-].[K+].[K+].[K+]` [Potassium citrate], in data set [1] (concentration not given), the “pH of Aqueous Solution” value is recorded as around 8.5.

With `CC(=O)[O-].[Na+]` [Sodium acetate, anhydrous], the “pH of Aqueous Solution” value in data set [1] (0.1 N) is ~8.9 (0.1 N).

Regarding `O=C([O-])[O-].[Na+].[Na+]` [Sodium carbonate anhydrous], in data set [1] (concentration not given), the “pH of Aqueous Solution” value is around 11.6.

For `O=P([O-])([O-])O.[Na+].[Na+]` [Sodium phosphate, dibasic, anhydrous], the “pH of Aqueous Solution” value in data set [1] (1.0% (1%)) is recorded as 9.1 (1%).

On to `O.O.O=P([O-])([O-])O.[Na+].[Na+]` [Sodium phosphate, dibasic, dihydrate], for which, in data set [1] (concentration not given), the “pH of Aqueous Solution” value is recorded as around 9.5.

`O.O.O.O.O.O.O.O.O.O.O.O.O=P([O-])([O-])O.[Na+].[Na+]` [Sodium phosphate, dibasic, dodecahydrate]: the “pH of Aqueous Solution” value in data set [1] (concentration not given) is around 9.5.

With `O.O.O.O.O.O.O.O=P([O-])([O-])O.[Na+].[Na+]` [Sodium phosphate, dibasic, heptahydrate], the “pH of Aqueous Solution” value in data set [1] (concentration not given) is recorded as around 9.5.

Take `O=P([O-])([O-])O.[Na+].[Na+]` [Sodium phosphate, dibasic]: the “pH of Aqueous Solution” value in data set [1] (concentration not given) is recorded as around 9.5.

In the case of `O.O.O.O.O.O.O.O.O.O.O.O.O=P([O-])([O-])[O-].[Na+].[Na+].[Na+]` [Sodium phosphate, tribasic dodecahydrate], the “pH of Aqueous Solution” value in data set [1] (0.1%) is on record as 11.5; in data set [1] (0.5%) it was 11.7; in data set [1] (1.0% (1%)), 11.9.
